Test results reported in US20220305012A1, “L[…] TREATING SLEEP ISSUES” (EISAI R&D MANAGEMENT CO., LTD., priority 2019, published 2022).

Tested on: Subjects Having Insomnia Disorder
Test: Example 1: subjective sleep onset latency (sSOL), Sleep Diary
Format: in vivo, human
Source text: As used herein, the term “subjective sleep onset latency”, abbreviated as “sSOL”, means the estimated number of minutes from the time that the subject attempted to sleep until sleep onset. In some embodiments, sSOL is derived from data entered in a subject's Sleep Diary.
In some embodiments, sleep diaries were used to assess sleep parameters reported by subjects (i.e., subjective assessments) including subjective sleep onset latency (sSOL), subjective sleep efficiency (sSE), subjective WASO (sWASO), and subjective total sleep time (sTST). Subjects were instructed to complete the Sleep Diary developed based on the consensus Sleep Diary as described in Carney et al., “The consensus sleep diary: standardizing prospective sleep self-monitoring,” Sleep 2012; 35(2):287-302. In some embodiments, the Sleep Diary was used to assess the subject's global perception of quality of sleep on the previous night with the following question: “How would you rate the quality of your sleep last night?” Subjects rated the quality of their sleep on a scale from 1 to 9, with 1 being extremely poor and 9 being extremely good. In some embodiments, the Sleep Diary was used to assess subjective ratings of morning sleepiness with the following question: “How alert/sleepy do you feel this morning?” Subjects rated their sleepiness/alertness level on a Likert scale from 1 to 9, with 1 being extremely sleepy and 9 being extremely alert.
sSOL—subjective sleep onset latency: estimated minutes from the time that the subject attempted to sleep until sleep onset.
Subjects were randomized in a double-blind manner and received either placebo, 5 mg of lemborexant, or 10 mg of lemborexant (approximately 1:1:1 randomization). All subjects underwent routine safety monitoring through the study, including assessments of treatment-emergent adverse events, 12-lead electrocardiograms, vital signs, weight, and clinical hematology and blood chemistry labs. Suicidality was assessed using the eC-SSRS.
Treatment period 1 began with the first dose of randomized study medication (placebo, 5 mg of lemborexant, or 10 mg of lemborexant). Subjects completed sleep diaries daily in the morning, within one hour of waketime. The subjects were assessed by a clinician one month, two months, three months, and six months after initiation of Treatment period 1. The following assessments were conducted:
The primary endpoint was the mean change from study baseline in subjective sleep onset latency at month 6.

## Cc1ncc(OC[C@@]2(c3cccc(F)c3)C[C@H]2C(=O)Nc2ccc(F)cn2)c(C)n1 [Lemborexant, (1R,2S)-2-(((2,4-dimethylpyrimidin-5-yl)oxy)methyl)-2-(3-fluorophenyl)-N-(5-fluoropyridin-2-yl)cyclopropanecarboxamide]
5 mg and 10 mg, at the equivalent timepoint (Table 2)
  subjective sleep onset latency compared with placebo: shorter subjective sleep onset latency than subjects treated with placebo
5 mg, First 7 Nights
  sSOL, Geometric Mean: 30.99 min
  sSOL, Mean: 45.69 min
  sSOL, Median: 36.58 min
5 mg, Month 1
  sSOL, Geometric Mean: 26.98 min
  sSOL, Mean: 41.89 min
  sSOL, Median: 32.50 min
5 mg, Month 3
  sSOL, Geometric Mean: 21.72 min
  sSOL, Mean: 34.31 min
  sSOL, Median: 24.79 min
5 mg, Month 6
  sSOL, Geometric Mean: 18.62 min
  sSOL, Mean: 29.49 min
  sSOL, Median: 22.29 min
5 mg, Study Baseline
  sSOL, Geometric Mean: 42.97 min
  sSOL, Mean: 62.19 min
  sSOL, Median: 53.57 min
5 mg, after 1 Month
  sSOL Change from Study Baseline, Mean: -19.41 min
  sSOL Change from Study Baseline, Median: -13.71 min
5 mg, after 3 Months
  sSOL Change from Study Baseline, Mean: -25.08 min
  sSOL Change from Study Baseline, Median: -20.71 min
5 mg, after 6 Months
  sSOL Change from Study Baseline, Mean: -29.39 min
  sSOL Change from Study Baseline, Median: -21.81 min
5 mg, after 7 Nights
  sSOL Change from Study Baseline, Mean: -16.86 min
  sSOL Change from Study Baseline, Median: -11.00 min
10 mg, First 7 Nights
  sSOL, Geometric Mean: 30.77 min
  sSOL, Mean: 45.94 min
  sSOL, Median: 35.71 min
10 mg, Month 1
  sSOL, Geometric Mean: 27.14 min
  sSOL, Mean: 41.93 min
  sSOL, Median: 31.79 min
10 mg, Month 3
  sSOL, Geometric Mean: 22.71 min
  sSOL, Mean: 36.13 min
  sSOL, Median: 26.42 min
10 mg, Month 6
  sSOL, Geometric Mean: 19.35 min
  sSOL, Mean: 33.09 min
  sSOL, Median: 23.57 min
10 mg, Study Baseline
  sSOL, Geometric Mean: 45.05 min
  sSOL, Mean: 64.97 min
  sSOL, Median: 55.71 min
10 mg, after 1 Month
  sSOL Change from Study Baseline, Mean: -24.06 min
  sSOL Change from Study Baseline, Median: -19.86 min
10 mg, after 3 Months
  sSOL Change from Study Baseline, Mean: -27.94 min
  sSOL Change from Study Baseline, Median: -25.71 min
10 mg, after 6 Months
  sSOL Change from Study Baseline, Mean: -32.49 min
  sSOL Change from Study Baseline, Median: -28.21 min
10 mg, after 7 Nights
  sSOL Change from Study Baseline, Mean: -18.89 min
  sSOL Change from Study Baseline, Median: -12.21 min
